We go through three compounds from ChEMBL document CHEMBL4823243, “Synergistic induction of apoptosis in resistant head and neck carcinoma and leukemia by alkoxyamide-based histone deacetylase inhibitors” (Eur J Med Chem, 2021).

The source made the active and inactive calls. No cut-off for these calls is given here.

Assay [1] concerns the target Histone deacetylase. Description: Inhibition of HDAC in human CAL-27 cells using Boc-Lys (acetyl)-AMC as substrate preincubated for 18 hrs followed by susbtrate addition and measured after 3 hrs by fluorescence microplate reader assay. It counts as cell-based.
Assay [2] relates to CAL-27. Nature of the assay: Induction of apoptosis in human CAL-27 cells assessed as caspase 3 activation at 0.3 uM pretreated for 24 hrs followed by cisplatin treatment and further incubated for 18 hrs by Caspase3/7 detection reagent based assay. It counts as functional, cell-based. As to conditions: time 42.0 hrs.
For assay [3], the system named is Cal27CisR. Nature of the assay: Induction of apoptosis in human Cal27CisR cells assessed as caspase 3 activation at 0.3 uM pretreated for 24 hrs followed by cisplatin treatment and further incubated for 18 hrs by Caspase3/7 detection reagent based assay. It counts as functional, cell-based. As to conditions: time 42.0 hrs.
Assay [4] deals with CAL-27. Nature of the assay: Induction of apoptosis in cisplatin resistant human CAL-27 cells assessed as caspase 3 activation at 0.3 uM pretreated for 24 hrs followed by cisplatin treatment and further incubated for 18 hrs by Caspase3/7 detection reagent based assay. The format is functional, cell-based. As to conditions: time 42.0 hrs.
In assay [5] the test system is CAL-27. Nature of the assay: Induction of DNA damage in human CAL-27 cells assessed as increase in gamma H2AX phosphorylation pretreated for 24 hrs followed by cisplatin treatment and further incubated for 18 hrs measured by Western blot analysis. The format is functional, cell-based. As to conditions: time 42.0 hrs. In general terms: In western blotting, separated proteins are transferred to a membrane and probed.

Assay [6] relates to HL-60. Nature of the assay: Antiproliferative activity against human HL-60 cells assessed as reduction in cell viability for 72 hrs by Celltitre-Glo luminescent assay. It counts as functional, cell-based. As to conditions: HL-60, 72 h.
Assay [7] addresses T1, Histone deacetylase (Homo sapiens) (UniProt Q13547+O15379+Q9UBN7+Q92769+Q9UQL6+Q8WUI4+Q9BY41+Q96DB2+P56524+Q9UKV0+Q969S8). Description: Inhibition of HDAC in human CAL-27 cells assessed as combination index at 0.4 uM measured in presence of 2 uM cDDP by MTT-based Chou-Talalay method. It counts as cell-based.
Assay [8] addresses T1, Histone deacetylase (Homo sapiens). Description: Inhibition of HDAC in human CAL-27 cells assessed as combination index at 0.2 uM measured in presence of 5 uM cDDP by MTT-based Chou-Talalay method. The format is cell-based.
Assay [9] has the same target. Description: Inhibition of HDAC in human CAL-27 cells assessed as combination index at 0.3 uM measured in presence of 2 uM cDDP by MTT-based Chou-Talalay method. The format is cell-based.
For assay [10] the target is unchanged. Description: Inhibition of HDAC in human CAL-27 cells assessed as potentiation of cisplatin-induced cytotoxicity by measuring fold reduction in cisplatin IC50 at 0.3 to 0.5 uM pretreated for 48 hrs followed by cisplatin addition and measured after 72 hrs by MTT assay relative to cisplatin alone. It counts as cell-based. The settings on record: dose 0.3-0.5 µM, time 120.0 hrs. For orientation: Formazan colour is commonly taken as a measure of viable cells.

In assay [11] the target is Histone deacetylase. Description: Inhibition of HDAC in human Cal27CisR cells assessed as potentiation of cisplatin-induced cytotoxicity by measuring cisplatin IC50 at 0.3 to 0.5 uM pretreated for 48 hrs followed by cisplatin addition and measured after 72 hrs by MTT assay (reference value: 3.57 uM). The format is cell-based.
For assay [12], the target named is Histone deacetylase. Description: Inhibition of HDAC in human CAL-27 cells assessed as potentiation of cisplatin-induced cytotoxicity by measuring cisplatin IC50 at 0.3 to 0.5 uM pretreated for 48 hrs followed by cisplatin addition and measured after 72 hrs by MTT assay (reference value: 3.57 uM). It counts as cell-based.
The target in assay [13] is T1, Histone deacetylase (Homo sapiens). Nature of the assay: Inhibition of HDAC in human CAL-27 cells assessed as combination index at 0.25 uM measured in presence of 5 uM cDDP by MTT-based Chou-Talalay method. The format is cell-based.
Assay [14] has the same target. Description: Inhibition of HDAC in human CAL-27 cells assessed as combination index at 0.35 uM measured in presence of 5 uM cDDP by MTT-based Chou-Talalay method. It counts as cell-based.
The target is the same in assay [15]. Nature of the assay: Inhibition of HDAC in human CAL-27 cells assessed as combination index at 0.4 uM measured in presence of 5 uM cDDP by MTT-based Chou-Talalay method. It counts as cell-based.
Assay [16] has the same target. Description: Inhibition of HDAC in human CAL-27 cells assessed as combination index at 0.1 uM measured in presence of 10 uM cDDP by MTT-based Chou-Talalay method. It counts as cell-based.
The target is the same in assay [17]. Description: Inhibition of HDAC in human CAL-27 cells assessed as combination index at 0.2 uM measured in presence of 10 uM cDDP by MTT-based Chou-Talalay method. The format is cell-based.
Assay [18] has the same target. Description: Inhibition of HDAC in human CAL-27 cells assessed as combination index at 0.25 uM measured in presence of 10 uM cDDP by MTT-based Chou-Talalay method. The format is cell-based.
For assay [19] the target is unchanged. Nature of the assay: Inhibition of HDAC in human CAL-27 cells assessed as combination index at 0.3 uM measured in presence of 10 uM cDDP by MTT-based Chou-Talalay method. The format is cell-based.
Assay [20] has the same target. Nature of the assay: Inhibition of HDAC in human CAL-27 cells assessed as combination index at 0.4 uM measured in presence of 10 uM cDDP by MTT-based Chou-Talalay method. It counts as cell-based.
Assay [21] has the same target. Nature of the assay: Inhibition of HDAC in human Cal27CisR cells assessed as combination index at 0.3 uM measured in presence of 10 uM cDDP by MTT-based Chou-Talalay method. The format is cell-based.
For assay [22] the target is unchanged. Nature of the assay: Inhibition of HDAC in human Cal27CisR cells assessed as combination index at 0.4 uM measured in presence of 10 uM cDDP by MTT-based Chou-Talalay method. It counts as cell-based.
Assay [23] shares this target. Nature of the assay: Inhibition of HDAC in human Cal27CisR cells assessed as combination index at 0.6 uM measured in presence of 10 uM cDDP by MTT-based Chou-Talalay method. It counts as cell-based.
The target is the same in assay [24]. Nature of the assay: Inhibition of HDAC in human Cal27CisR cells assessed as combination index at 0.1 uM measured in presence of 20 uM cDDP by MTT-based Chou-Talalay method. It counts as cell-based.
The target is the same in assay [25]. Description: Inhibition of HDAC in human Cal27CisR cells assessed as combination index at 0.2 uM measured in presence of 20 uM cDDP by MTT-based Chou-Talalay method. It counts as cell-based.
Assay [26] shares this target. Description: Inhibition of HDAC in human Cal27CisR cells assessed as combination index at 0.4 uM measured in presence of 20 uM cDDP by MTT-based Chou-Talalay method. The format is cell-based.
The target is the same in assay [27]. Nature of the assay: Inhibition of HDAC in human Cal27CisR cells assessed as combination index at 0.6 uM measured in presence of 20 uM cDDP by MTT-based Chou-Talalay method. It counts as cell-based.
Assay [28] shares this target. Nature of the assay: Inhibition of HDAC in human Cal27CisR cells assessed as combination index at 0.1 uM measured in presence of 50 uM cDDP by MTT-based Chou-Talalay method. It counts as cell-based.
Assay [29] has the same target. Nature of the assay: Inhibition of HDAC in human Cal27CisR cells assessed as combination index at 0.2 uM measured in presence of 50 uM cDDP by MTT-based Chou-Talalay method. It counts as cell-based.
The target is the same in assay [30]. Description: Inhibition of HDAC in human Cal27CisR cells assessed as combination index at 0.4 uM measured in presence of 50 uM cDDP by MTT-based Chou-Talalay method. The format is cell-based.
Assay [31] has the same target. Nature of the assay: Inhibition of HDAC in human Cal27CisR cells assessed as combination index at 0.6 uM measured in presence of 50 uM cDDP by MTT-based Chou-Talalay method. It counts as cell-based.

For the compound `O=C(CCCCCONC(=O)c1ccc2ccccc2n1)NO`, the IC50 in [1] was determined as 180 nM; in assay [6], 270 nM; in assay [11], 3670 nM; in assay [12], 1120 nM. The result in [2], in [3], in assay [4] and in assay [5] was Active. For the same compound, the CI was 0.48 in [7]; 1.11 in assay [8]; 0.88 in assay [9]; 0.94 in assay [13]; 0.05 in assay [14]; 0.04 in assay [15]. The CI in assay [16] was 0.22; in [17], 0.04; in assay [18], 0.03; in assay [19] it was 0.02; in assay [20] it was 0.02; in assay [21] it was 0.16. For the same compound, the CI in assay [22] is 0.11; in assay [23], 0.1; in assay [24] it was 5.25; in assay [25], 0.55; in assay [26], 0.26; in assay [27], 0.45. For the same compound, the CI in assay [28] was 0.32; in assay [29] it was 0.5; in [30], 0.47; in assay [31], 0.38. Besides, the Ratio IC50 in [10] was determined as 3.2.

On to `O=C(CCCCCONC(=O)c1nccc2ccccc12)NO`, for which the IC50 in [1] stood at 1500 nM; in assay [6] it was 561 nM. For the same compound, the outcome in assay [5] was Active.

In the case of `O=C(CCCCCONC(=O)c1cc2ccccc2[nH]1)NO`, the IC50 in assay [1] is 120 nM; in assay [11] it was 6590 nM; in assay [12], 1310 nM. Moreover, the outcome in [2], in assay [3], in assay [4] and in assay [5] was Active. Moreover, the CI in assay [7] stood at 0.14; in [8] it was 0.09; in [9] it was 0.35; in [13], 0.11; in assay [14], 0.05; in assay [15], 0.04. Besides, the CI in assay [16] turned out to be 0.22; in assay [17], 0.04; in [18], 0.03; in [19] it was 0.02; in assay [20] it was 0.02; in assay [21], 1.17. Besides, the CI was 0.59 in [22]; 0.19 in assay [23]; 2.3 in [24]; 0.43 in assay [25]; 0.14 in [26]; 0.24 in assay [27]. The CI in assay [28] was 0.36; in assay [29], 0.47; in [30], 0.47; in assay [31], 0.41. The Ratio IC50 in [10] stood at 2.73.

The term IC50 denotes the concentration needed to halve the response being measured.
